From ChEMBL document CHEMBL3832761, “MMV Pathogen Box Bioactivity Data” (2017)
≈ marks a conversion by molar mass, not a printed value.

Legend:
[1] = test system: Mycobacterium tuberculosis; assay: AntiMycobacterium tuberculosis activity 2-week 7H9/DPPC/cholesterol/BSA/Tx MIC (uM); type: functional; settings: 336 h
HepG2 [2] = assay: HepG2 galactose CC50 (uM) Cytotoxicity; type: functional
[3] = test system: Mycobacterium tuberculosis; assay: AntiMycobacterium tuberculosis activity 1-week 7H9/ADC/Tw MIC (uM); type: functional; settings: 168 h
[4] = test system: Mycobacterium tuberculosis; assay: (§1) AntiMycobacterium tuberculosis activity day 10 in 7H9/2.5mM butyrate/pH6/0.1mM nitrite MIC90 (uM); type: functional; settings: 240 h
[5] = test system: Mycobacterium tuberculosis; assay: AntiMycobacterium tuberculosis activity 2-week Alamar Blue 7H9/cholesterol/BSA/Tx MIC (uM); type: functional; settings: 336 h
[6] = test system: Mycobacterium tuberculosis; assay: AntiMycobacterium tuberculosis activity 2-week 7H9/glucose/BSA/Tx MIC (uM); type: functional; settings: 336 h
[7] = test system: Mycobacterium tuberculosis; assay: AntiMycobacterium tuberculosis activity 2-week Alamar Blue 7H9/ADC/Tw MIC (uM); type: functional; settings: 336 h
[8] = test system: Mycobacterium tuberculosis; assay: AntiMycobacterium tuberculosis activity 1-week 7H9/cholesterol/BSA/Tx MIC (uM); type: functional; settings: 168 h
[9] = test system: Mycobacterium tuberculosis; assay: AntiMycobacterium tuberculosis activity 1-week 7H9/glucose/BSA/Tx MIC (uM); type: functional; settings: 168 h
[10] = test system: Mycobacterium tuberculosis; assay: AntiMycobacterium tuberculosis activity day 21 in 7H9/2.5mM butyrate/pH6/0.1mM nitrite MIC90 (uM); type: functional; settings: 504 h
[11] = test system: Mycobacterium tuberculosis; assay: AntiMycobacterium tuberculosis activity 2-week GAST/Fe MIC (uM); type: functional; settings: 336 h
HepG2 [12] = assay: HepG2 glucose CC50 (uM) Cytotoxicity; type: functional
[13] = test system: Mycobacterium tuberculosis; assay: as §1; type: functional; settings: 240 h; remark: listed apart in the source
[14] = test system: Mycobacterium tuberculosis; assay: AntiMycobacterium tuberculosis activity 2-week 7H9/ADC/Tw MIC (uM); type: functional; settings: 336 h
[15] = test system: Mycobacterium tuberculosis; assay: AntiMycobacterium tuberculosis activity 1-week 7H9/DPPC/cholesterol/BSA/Tx MIC (uM); type: functional; settings: 168 h
[16] = test system: Mycobacterium tuberculosis; assay: AntiMycobacterium tuberculosis activity 1-week GAST/Fe MIC (uM); type: functional; settings: 168 h
[17] = test system: Mycobacterium tuberculosis; assay: AntiMycobacterium tuberculosis activity day 21 MIC99 in 7H9/2.5mM butyrate/pH6/0.1mM nitrite MIC99 (uM); type: functional; settings: 504 h
HepG2 [18] = assay: HepG2 inhibition at 10 uM (%) Cytotoxicity; type: functional; settings: Homo sapiens
Plasmodium berghei = assay: Antimalarial activity: Liver Stage Plasmodium berghei sporozoite Luciferase assay: inhibition at 10 uM (%); type: functional
Plasmodium falciparum [19] = assay: Antimalarial activity: Asexual Blood Stage Plasmodium falciparum Dd2 IC50 (uM); type: functional, organism-based
Plasmodium falciparum [20] = assay: Antimalarial activity: Asexual Blood Stage Plasmodium falciparum 3D7 IC50 (uM); type: functional, organism-based
[21] = HL60 CC50 (uM) Cytotoxicity; type: functional; settings: HL-60
Plasmodium falciparum [22] = assay: Antimalarial activity: Asexual Blood Stage Plasmodium falciparum W2 IC50 (uM); type: functional, organism-based
Plasmodium falciparum [23] = assay: Antimalarial activity: Gametocytes Plasmodium falciparum NF54 Gametocytes Stage V: inhibition at 10 uM (%); type: functional
HepG2 [24] = assay: Cytotoxicity data HepG2 CC20 (uM); type: functional

Compound: O=C(N[C@H](Cc1ccccc1)C(=O)Nc1ccccc1N1CCOCC1)c1cccs1
- MIC [1]: 2.3 µM (≈ 1 µg/mL)
- CC50 (HepG2 [2]; Homo sapiens, HepG2): > 50 µM
- MIC [3]: 1.2 µM (≈ 0.523 µg/mL)
- MIC90 [4]: 6.25 µM (≈ 2.72 µg/mL)
- MIC [5]: 3.13 µM (≈ 1.36 µg/mL)
- MIC [6]: 4.7 µM (≈ 2.05 µg/mL)
- MIC [7]: 1.2 µM (≈ 0.523 µg/mL)
- MIC [8]: 1.56 µM (≈ 0.679 µg/mL)
- MIC [9]: 3.13 µM (≈ 1.36 µg/mL)
- MIC90 [10]: 12.5 µM (≈ 5.44 µg/mL)
- MIC [11]: 0.15 µM (≈ 0.0653 µg/mL)
- CC50 (HepG2 [12]; Homo sapiens, HepG2): > 50 µM
- MIC90 [13]: > 50 µM
- MIC [14]: 1.2 µM (≈ 0.523 µg/mL)
- MIC [15]: 2.3 µM (≈ 1 µg/mL)
- MIC [16]: 0.15 µM (≈ 0.0653 µg/mL)
- MIC [17]: > 50 µM

Compound: O=C1COCc2ccc(Br)cc2N1Cc1ccc(C(F)(F)F)cc1
- inhibition at 10 µM (HepG2 [18]): 10%
- Inhibition (Plasmodium berghei): 2%
- IC50 (Plasmodium falciparum [19]): 3.06 µM
- IC50 (Plasmodium falciparum [20]): 0.96 µM
- CC50 [21]: > 50 µM
- IC50 (Plasmodium falciparum [22]): 2.26 µM
- Inhibition (Plasmodium falciparum [23]): 2%
- CC20 (HepG2 [24]): 38.4 µM

Compound: O=C(NCCc1ccccc1)c1cc(-c2cccnc2)cnc1NCC1CC1
- inhibition at 10 µM (HepG2 [18]): 5%
- Inhibition (Plasmodium berghei): 39%
- IC50 (Plasmodium falciparum [19]): 2.29 µM
- IC50 (Plasmodium falciparum [20]): 1.29 µM
- CC50 [21]: > 12.5 µM
- IC50 (Plasmodium falciparum [22]): 1.4 µM
- Inhibition (Plasmodium falciparum [23]): 4%
- CC20 (HepG2 [24]): 12.9 µM

Compound: Brc1cncc(-c2cc(NCCCn3ccnc3)nc(-c3ccccc3)n2)c1
- MIC [1]: 9.4 µM (≈ 4.09 µg/mL)
- CC50 (HepG2 [2]): > 50 µM
- CC50 (HepG2 [2]; Homo sapiens, HepG2): 43.6 µM
- MIC [3]: 37 µM (≈ 16.1 µg/mL)
- MIC90 [4]: 12.5 µM (≈ 5.44 µg/mL)
- MIC [5]: 6.25 µM (≈ 2.72 µg/mL)
- MIC [6]: 12.5 µM (≈ 5.44 µg/mL)
- MIC [7]: 12.5 µM (≈ 5.44 µg/mL)
- MIC [8]: 9.4 µM (≈ 4.09 µg/mL)
- MIC [9]: 4.7 µM (≈ 2.05 µg/mL)
- MIC90 [10]: 12.5 µM (≈ 5.44 µg/mL)
- MIC [11]: 12.5 µM (≈ 5.44 µg/mL)
- CC50 (HepG2 [12]): 28.3 µM
- CC50 (HepG2 [12]; Homo sapiens, HepG2): 16.4 µM
- MIC90 [13]: > 50 µM
- MIC [14]: 25 µM (≈ 10.9 µg/mL)
- MIC [15]: 6.25 µM (≈ 2.72 µg/mL)
- MIC [16]: 12.5 µM (≈ 5.44 µg/mL)
- MIC [17]: > 50 µM

Compound: CN1CCN(c2nccc3[nH]c(-c4cccc(F)c4)cc23)CC1
- inhibition at 10 µM (HepG2 [18]): 2%
- Inhibition (Plasmodium berghei): 40%
- IC50 (Plasmodium falciparum [19]): 2.1 µM
- IC50 (Plasmodium falciparum [20]): 1.46 µM
- CC50 [21]: > 12.5 µM
- IC50 (Plasmodium falciparum [22]): 2.63 µM
- Inhibition (Plasmodium falciparum [23]): 29%
- CC20 (HepG2 [24]): 10.4 µM

Compound: CC(=O)NC[C@H]1CN(c2ccc(N3CCSCC3)c(F)c2)C(=O)O1 [SUTEZOLID]
- MIC [1]: 1.2 µM (≈ 0.424 µg/mL)
- CC50 (HepG2 [2]; Homo sapiens, HepG2): > 50 µM
- MIC [3]: 1.2 µM (≈ 0.424 µg/mL)
- MIC90 [4]: 0.19 µM (≈ 0.0671 µg/mL)
- MIC [5]: 0.78 µM (≈ 0.276 µg/mL)
- MIC [6]: 1.2 µM (≈ 0.424 µg/mL)
- MIC [7]: 0.78 µM (≈ 0.276 µg/mL)
- MIC [8]: 0.39 µM (≈ 0.138 µg/mL)
- MIC [9]: 0.6 µM (≈ 0.212 µg/mL)
- MIC90 [10]: 0.39 µM (≈ 0.138 µg/mL)
- MIC [11]: 0.6 µM (≈ 0.212 µg/mL)
- CC50 (HepG2 [12]; Homo sapiens, HepG2): > 50 µM
- MIC90 [13]: 0.39 µM (≈ 0.138 µg/mL)
- MIC [14]: 1.2 µM (≈ 0.424 µg/mL)
- MIC [15]: 0.6 µM (≈ 0.212 µg/mL)
- MIC [16]: 0.2 µM (≈ 0.0707 µg/mL)
- MIC [17]: 0.78 µM (≈ 0.276 µg/mL)
